Reference: publication PMC10387993, “New pyrimidine-N-β-D-glucosides: synthesis, biological evaluation, and molecular docking investigations” (Turkish Journal of Chemistry, 2023)
In brackets after ≈: the same amount, converted by molar mass.

Legend:
Assay type in all cases: cell-based
A549 = assay: cells; conditions: Homo sapiens; for LC50 (concentration causing 50% net cell loss): A549, read-out: LC50; for GI50 / IC50 / IC (total growth inhibition): A549, MTT; for IC50: read-out: IC50; for IC (total growth inhibition): read-out: TGI
Outline: (§1)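 Cells were seeded at about 1 × 10^4 per well, brought to 200 μL with medium, and assessed by MTT: 4 h with MTT reagent, formazan dissolved in DMSO with Sorenson's buffer, absorbance read at 560 nm (690 nm reference). IC50 derived from percent inhibition relative to DMSO.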

C6 (Rat brain glioma) = assay: cells; conditions: Rattus norvegicus; for LC50 (concentration giving 50% net cell loss relative to time zero): read-out: LC50; for GI50 / IC50 / IC (total growth inhibition): C6, MTT; for IC50: read-out: IC50; for IC (total growth inhibition): read-out: TGI
Outline: as §1

HT29 = assay: cells; conditions: Homo sapiens; for LC50 (concentration giving 50% net cell loss relative to time zero): HT-29, read-out: LC50; for GI50 / IC50 / IC (total growth inhibition): HT-29, HT29, MTT; for IC50: read-out: IC50; for IC (total growth inhibition): read-out: TGI
Outline: as §1

HeLa = assay: cells; conditions: Homo sapiens; for GI50 / IC50 / IC (total growth inhibition): MTT; for IC50: read-out: IC50; for IC (total growth inhibition): read-out: TGI; for LC50 (concentration causing 50% net cell loss): read-out: LC50
Outline: as §1

Hep3B = assay: cells; conditions: Homo sapiens; for GI50 / IC50 / IC (total growth inhibition): MTT; for IC50: read-out: IC50; for IC (total growth inhibition): read-out: TGI; for LC50 (concentration causing 50% net cell loss relative to time zero): read-out: LC50
Outline: as §1

MCF7 = assay: cells; conditions: Homo sapiens; for LC50 (concentration causing 50% net cell loss relative to time zero): MCF7, read-out: LC50; for GI50 / IC50 / IC (total growth inhibition): MCF7, MTT; for IC50: read-out: IC50; for IC (total growth inhibition): read-out: TGI
Outline: as §1

in vitro = conditions: human, LC50
Outline: as §1

normal FL cells = assay: cells; conditions: FL normal cells, MTT; for IC50: read-out: IC50; for IC (total growth inhibition): read-out: TGI
Outline: as §1

[1] = LDH cytotoxic activity assay, C6; conditions: rat, C6 glioma cells; for cytotoxicity at 24 h, 25 μg/mL: C6, 25 μg/mL; for cytotoxicity at 24 h, 50 μg/mL: C6, 50 μg/mL; for cytotoxicity at 24 h, 75 μg/mL: C6, 75 μg/mL; for cytotoxicity at 24 h, 100 μg/mL: C6, 100 μg/mL
Outline: (§2)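 About 5 × 10^3 cells per well, in triplicate, exposed to 25, 50, 75 and 100 μg/mL of test compound for 24 h at 37 °C, 5% CO2. Cells grown in DMEM or RPMI 1640 with 10% FBS. LDH activity read as absorbance at 492–630 nm.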

[2] = LDH cytotoxic activity assay, HeLa; conditions: human, HeLa cells
Outline: as §2

[3] = LDH cytotoxic activity assay, HT29; conditions: human, HT29 cells; for cytotoxicity at 24 h, 25 μg/mL: HT29, 25 μg/mL; for cytotoxicity at 24 h, 50 μg/mL: HT29, 50 μg/mL; for cytotoxicity at 24 h, 75 μg/mL: HT29, 75 μg/mL; for cytotoxicity at 24 h, 100 μg/mL: HT29, 100 μg/mL
Outline: as §2

E. coli ATCC 25922 = assay: Microdilution MIC assay; conditions: Escherichia coli, ATCC25922; E. coli ATCC 25922, 24 h at 35 °C
Outline: (§3)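 Broth microdilution in microwells; plates incubated 24 h at 35 °C. MIC taken as the lowest concentration with no visible growth (turbidity), read by eye.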

E. coli ESBL ATCC 35218 = assay: Microdilution MIC assay; conditions: Escherichia coli, ATCC35218; E. coli ESBL ATCC 35218, 24 h at 35 °C
Outline: as §3

[4] = system: E. faecalis VRE ATCC 19433; assay: Microdilution MIC assay; conditions: Enterococcus faecalis; E. faecalis VRE ATCC 19433, 24 h at 35 °C
Outline: as §3

S. aureus ATCC 25923 = assay: Microdilution MIC assay; conditions: Staphylococcus aureus, ATCC25923, 24 h, S. aureus ATCC 25923, 24 h at 35 °C; read-out: MIC
Outline: as §3

[5] = system: S. aureus MRSA ATCC 46300; assay: Microdilution MIC assay; conditions: Staphylococcus aureus; S. aureus MRSA ATCC 46300, 24 h at 35 °C; read-out: MIC
Outline: as §3

S. gordonii NCTC 7870 = assay: Microdilution MIC assay; conditions: Streptococcus gordonii, NCTC7870; S. gordonii NCTC 7870, 24 h at 35 °C
Outline: as §3

CC(=O)OC[C@H]1O[C@@H](Nc2nc(-c3ccc(C)cc3)cc(-c3ccccn3)n2)[C@H](OC(C)=O)[C@@H](OC(C)=O)[C@@H]1OC(C)=O [Compound 16, 2,3,4,6-tetra-O-acetyl-N-[4-(4-methylphenyl)-6-pyridin-2-ylpyrimidin-2-yl]-β-D-glucopyranosylamine]
LC50 (concentration causing 50% net cell loss) (A549): > 500 µg/mL
GI50 (A549): 23.8 µg/mL (≈ 40.1 µM)
IC50 (A549): > 500 µg/mL
IC (total growth inhibition) (A549): > 500 µg/mL
LC50 (concentration giving 50% net cell loss relative to time zero) (C6 (Rat brain glioma)): 22.9 µg/mL (≈ 38.6 µM)
GI50 (C6 (Rat brain glioma)): 1.4 µg/mL (≈ 2.36 µM)
IC50 (C6 (Rat brain glioma)): 4.38 µg/mL (≈ 7.39 µM)
IC (total growth inhibition) (C6 (Rat brain glioma)): 2.8 µg/mL
LC50 (concentration giving 50% net cell loss relative to time zero) (HT29): 122 µg/mL (≈ 205 µM)
GI50 (HT29): 1.47 µg/mL (≈ 2.48 µM)
IC50 (HT29): 3.26 µg/mL (≈ 5.5 µM)
IC (total growth inhibition) (HT29): 3.88 µg/mL
GI50 (HeLa): 1.49 µg/mL (≈ 2.51 µM)
IC50 (HeLa): 9.13 µg/mL (≈ 15.4 µM)
IC (total growth inhibition) (HeLa): 3.28 µg/mL
LC50 (concentration causing 50% net cell loss) (HeLa): 34.1 µg/mL (≈ 57.6 µM)
GI50 (Hep3B): 1.99 µg/mL (≈ 3.36 µM)
IC50 (Hep3B): 7.18 µg/mL (≈ 12.1 µM)
IC (total growth inhibition) (Hep3B): 7.33 µg/mL
LC50 (concentration causing 50% net cell loss relative to time zero) (Hep3B): 326 µg/mL (≈ 550 µM)
LC50 (concentration causing 50% net cell loss relative to time zero) (MCF7): 495 µg/mL (≈ 835 µM)
GI50 (MCF7): 1.41 µg/mL (≈ 2.38 µM)
IC50 (MCF7): 4.12 µg/mL (≈ 6.95 µM)
IC (total growth inhibition) (MCF7): 4.29 µg/mL
LC50 (concentration causing 50% net cell loss) (in vitro): > 500 µg/mL
GI50 (normal FL cells): 1.71 µg/mL (≈ 2.89 µM)
IC50 (normal FL cells): 6.31 µg/mL (≈ 10.6 µM)
IC (total growth inhibition) (normal FL cells): 6.44 µg/mL
cytotoxicity at 24 h, 25 μg/mL [1]: 17.1%
cytotoxicity at 24 h, 50 μg/mL [1]: 28.9%
cytotoxicity at 24 h, 75 μg/mL [1]: 63.2%
cytotoxicity at 24 h, 100 μg/mL [1]: 84.7%
cytotoxicity at 24 h, 25 μg/mL [2]: 35.7%
cytotoxicity at 24 h, 50 μg/mL [2]: 62.6%
cytotoxicity at 24 h, 75 μg/mL [2]: 77.1%
cytotoxicity at 24 h, 100 μg/mL [2]: 99.2%
cytotoxicity at 24 h, 25 μg/mL [3]: 26.4%
cytotoxicity at 24 h, 50 μg/mL [3]: 34.4%
cytotoxicity at 24 h, 75 μg/mL [3]: 48.6%
cytotoxicity at 24 h, 100 μg/mL [3]: 70.2%
MIC (E. coli ATCC 25922): > 1000 µg/mL
MIC (E. coli ESBL ATCC 35218): > 1000 µg/mL
MIC [4]: 1000 µg/mL (≈ 1690 µM)
MIC (S. aureus ATCC 25923): > 1000 µg/mL
MIC [5]: > 1000 µg/mL
MIC (S. gordonii NCTC 7870): > 1000 µg/mL

Cc1ccc(-c2cc(-c3ccncc3)nc(N[C@@H]3O[C@H](CO)[C@@H](O)[C@H](O)[C@H]3O)n2)cc1 [Compound 9, N-[4-(4-methylphenyl)-6-pyridin-4-ylpyrimidin-2-yl]-β-D-glucopyranosylamine]
LC50 (concentration causing 50% net cell loss) (A549): > 500 µg/mL
GI50 (A549): > 500 µg/mL
IC50 (A549): > 500 µg/mL
IC (total growth inhibition) (A549): > 500 µg/mL
LC50 (concentration giving 50% net cell loss relative to time zero) (C6 (Rat brain glioma)): > 500 µg/mL
GI50 (C6 (Rat brain glioma)): > 500 µg/mL
IC50 (C6 (Rat brain glioma)): > 500 µg/mL
IC (total growth inhibition) (C6 (Rat brain glioma)): > 500 µg/mL
LC50 (concentration giving 50% net cell loss relative to time zero) (HT29): > 500 µg/mL
GI50 (HT29): 4.3 µg/mL (≈ 10.1 µM)
IC50 (HT29): > 500 µg/mL
IC (total growth inhibition) (HT29): > 500 µg/mL
GI50 (HeLa): > 500 µg/mL
IC50 (HeLa): > 500 µg/mL
IC (total growth inhibition) (HeLa): > 500 µg/mL
LC50 (concentration causing 50% net cell loss) (HeLa): > 500 µg/mL
GI50 (Hep3B): 4.61 µg/mL (≈ 10.9 µM)
IC50 (Hep3B): > 500 µg/mL
IC (total growth inhibition) (Hep3B): > 500 µg/mL
LC50 (concentration causing 50% net cell loss relative to time zero) (Hep3B): > 500 µg/mL
LC50 (concentration causing 50% net cell loss relative to time zero) (MCF7): > 500 µg/mL
GI50 (MCF7): 1.89 µg/mL (≈ 4.45 µM)
IC50 (MCF7): > 500 µg/mL
IC (total growth inhibition) (MCF7): > 500 µg/mL
LC50 (concentration causing 50% net cell loss) (in vitro): > 500 µg/mL
GI50 (normal FL cells): 7.04 µg/mL (≈ 16.6 µM)
IC50 (normal FL cells): > 500 µg/mL
IC (total growth inhibition) (normal FL cells): > 500 µg/mL
cytotoxicity at 24 h, 25 μg/mL [1]: 28.4%
cytotoxicity at 24 h, 50 μg/mL [1]: 34.1%
cytotoxicity at 24 h, 75 μg/mL [1]: 70.2%
cytotoxicity at 24 h, 100 μg/mL [1]: 90.6%
cytotoxicity at 24 h, 25 μg/mL [2]: 10%
cytotoxicity at 24 h, 50 μg/mL [2]: 34.3%
cytotoxicity at 24 h, 75 μg/mL [2]: 49.6%
cytotoxicity at 24 h, 100 μg/mL [2]: 55.9%
cytotoxicity at 24 h, 25 μg/mL [3]: 25.7%
cytotoxicity at 24 h, 50 μg/mL [3]: 40.9%
cytotoxicity at 24 h, 75 μg/mL [3]: 74.7%
cytotoxicity at 24 h, 100 μg/mL [3]: 81.8%
MIC (E. coli ATCC 25922): > 1000 µg/mL
MIC (E. coli ESBL ATCC 35218): > 1000 µg/mL
MIC [4]: 1000 µg/mL (≈ 2360 µM)
MIC (S. aureus ATCC 25923): 1000 µg/mL (≈ 2360 µM)
MIC [5]: 1000 µg/mL (≈ 2360 µM)
MIC (S. gordonii NCTC 7870): 1000 µg/mL (≈ 2360 µM)
